In assay [1] the target is T1, human vasopressin V1a receptor (Homo sapiens, UniProt P37288). The experiment in a line: Human vasopressin V1a receptor binding assay. As to conditions: 1321N1 cell membranes, [3H]vasopressin; read-out: Ki (nM) on hV1a cell line. The method in brief: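 Radioligand competition on membranes from cells expressing human V1a receptor; incubation 60 minutes at 27° C., non-specific binding with 1.2×10^−6 M unlabeled (Arg^8)-vasopressin, filtration separation. Ki by Cheng-Prusoff using Scatchard-derived KD, from at least two independent experiments.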
T1 sequence (P37288 whole entry): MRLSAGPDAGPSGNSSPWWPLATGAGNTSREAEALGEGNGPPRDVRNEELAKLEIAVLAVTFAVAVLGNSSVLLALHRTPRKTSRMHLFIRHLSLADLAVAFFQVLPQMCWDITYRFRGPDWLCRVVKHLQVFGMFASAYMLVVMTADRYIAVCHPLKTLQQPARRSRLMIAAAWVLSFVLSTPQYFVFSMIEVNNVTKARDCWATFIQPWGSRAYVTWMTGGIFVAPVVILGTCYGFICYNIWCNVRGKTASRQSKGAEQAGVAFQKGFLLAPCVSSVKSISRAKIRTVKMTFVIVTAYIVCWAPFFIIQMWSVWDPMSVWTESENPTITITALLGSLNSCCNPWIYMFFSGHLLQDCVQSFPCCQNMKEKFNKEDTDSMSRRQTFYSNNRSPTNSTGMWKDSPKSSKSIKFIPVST

The target of assay [2] is T1, human vasopressin V1a receptor. The experiment in a line: Functional assay on human vasopressin V1a receptor expressing cell line (intracellular Ca2+ fluorescence). The format is cell-based. As to conditions: 1321N1 cells, (Arg8)-vasopressin at EC80; read-out: IC50 (nM) on hV1a cell line.

The text below walks through data of patent US11298363B2, “Triazolobenzazepines as vasopressin V1a receptor antagonists” (RICHTER GEDEON NYRT., priority 2017, dated 2022).

Structures can show the parent of a compound that is named as a salt.

Turning to `CN1CCC(C(=O)N[C@H]2Cc3cc(Cl)ccc3-n3c(nnc3[C@H]3CC[C@H](Oc4ccccn4)CC3)C2)CC1` [Example 200], the Ki in assay [1] is 114 nM. Moreover, the half-maximal inhibitory concentration (IC50) in assay [2] was 1190 nM.

As for `O=C([C@H]1CC[C@H](c2nnc3n2-c2ccc(Br)cc2CC(O)C3)CC1)N1CCCCC1` (stereo partly drawn) [Example 92, [Trans-4-(8-bromo-5-hydroxy-5,6-dihydro-4H-[1,2,4]triazolo[4,3-a][1]benzazepin-1-yl)cyclohexyl](piperidin-1-yl)methanone], in assay [1], the Ki is 1.9 nM. In addition, in assay [2], the concentration for half-maximal inhibition (IC50) was found to be 16 nM.

With `CCC(C)(C)C(=O)N[C@H]1Cc2cc(Cl)ccc2-n2c(nnc2[C@H]2CC[C@H](Oc3ccccn3)CC2)C1` [Example 158, N-{(5S)-8-chloro-1-[trans-4-(pyridin-2-yloxy)cyclohexyl]-5,6-dihydro-4H-[1,2,4]triazolo[4,3-a][1]benzazepin-5-yl}-2,2-dimethylbutanamide], the inhibitory constant (Ki) in assay [1] amounted to 62 nM. For the same compound, the half-inhibitory concentration (IC50) in assay [2] amounted to 1510 nM.

Turning to `COC1Cc2cc(Cl)ccc2-n2c(nnc2[C@H]2CC[C@@H](N3CCN(C)CC3)CC2)C1` (stereo partly drawn) [Example 183, 8-chloro-5-methoxy-1-[cis-4-(4-methylpiperazin-1-yl)cyclohexyl]-5,6-dihydro-4H-[1,2,4]triazolo[4,3-a][1]benzazepine], the Ki in assay [1] was determined as 102 nM. The IC50 in assay [2] amounted to 2120 nM.

Take `Clc1ccc2c(c1)CC1(Cc3nnc([C@H]4CCN(Cc5cccnc5)C4)n3-2)OCCO1` [Example 249, 8′-chloro-1-[(3S)-1-(pyridin-3-ylmethyl)pyrrolidin-3-yl]-4′H,6′H-spiro[1,3-dioxolane-2,5′-[1,2,4]triazolo[4,3-a][1]benzazepine]]: the inhibition constant (Ki) in assay [1] came out at 0.8 nM. Moreover, the IC50 in assay [2] came to 7 nM.

For the compound `COC1Cc2cc(Cl)ccc2-n2c(nnc2[C@H]2CC[C@@](OC)(C(F)(F)F)CC2)C1` (stereo partly drawn) [Example 223, 8-chloro-5-methoxy-1-[trans-4-methoxy-4-(trifluoromethyl)cyclohexyl]-5,6-dihydro-4H-[1,2,4]triazolo[4,3-a][1]benzazepine], the inhibition constant (Ki) in assay [1] amounted to 1.6 nM. Moreover, the half-inhibitory concentration (IC50) in assay [2] was 8.1 nM.

As to `Clc1ccc2c(c1)CC1(Cc3nnc([C@H]4CC[C@H](N5CCOCC5)CC4)n3-2)OCCO1` [Example 162, 8′-chloro-1′-[trans-4-(morpholin-4-yl)cyclohexyl]-4′H,6′H-spiro[1,3-dioxolane-2,5′-[1,2,4]triazolo[4,3-a][1]benzazepine]hydrochloride], the Ki in assay [1] is 0.5 nM. In assay [2], the half-inhibitory concentration (IC50) was 2.9 nM.

For the compound `O=C(N[C@H]1Cc2cc(Cl)ccc2-n2c(nnc2[C@H]2CC[C@H](Oc3ccccn3)CC2)C1)C1CCOCC1` [Example 151], in assay [1], the Ki was found to be 30 nM. The IC50 in assay [2] was found to be 209 nM.

For `NC1Cc2cc(Cl)ccc2-n2c(nnc2[C@H]2CC[C@H](N3CCOCC3)CC2)C1` (stereo partly drawn) [Example 113, 8-chloro-1-[trans-4-(morpholin-4-yl)cyclohexyl]-5,6-dihydro-4H-[1,2,4]triazolo[4,3-a][1]benzazepin-5-amine], the inhibition constant (Ki) in assay [1] was 21 nM. The half-maximal inhibitory concentration (IC50) in assay [2] came to 305 nM.

Regarding `CN(C)C1Cc2cc(F)ccc2-n2c(nnc2[C@H]2CC[C@H](Oc3ccccn3)CC2)C1` (stereo partly drawn) [Example 147, 8-fluoro-N,N-dimethyl-1-[trans-4-(pyridin-2-yloxy)cyclohexyl]-5,6-dihydro-4H-[1,2,4]triazolo[4,3-a][1]benzazepin-5-amine], the Ki in assay [1] is 1 nM. Further, the 50% inhibitory concentration (IC50) in assay [2] worked out at 9.4 nM.

For the compound `OC1Cc2cc(Cl)ccc2-n2c(nnc2N2CCC(Oc3ccccn3)CC2)C1` (centres unmarked) [Example 181, 8-chloro-1-[4-(pyridin-2-yloxy)piperidin-1-yl]-5,6-dihydro-4H-[1,2,4]triazolo[4,3-a][1]benzazepin-5-ol], the inhibition constant Ki in assay [1] amounted to 0.5 nM. Besides, the IC50 in assay [2] amounted to 1.8 nM.

As for `CC(C)C(=O)NC1Cc2cc(Cl)ccc2-n2c(nnc2C2CCN(c3ccccn3)CC2)C1` (centres unmarked) [Example 4], the Ki in assay [1] worked out at 70 nM. Further, the IC50 in assay [2] is 825 nM.

With `O=C(N[C@@H]1Cc2cc(Cl)ccc2-n2c(nnc2[C@H]2CC[C@H](Oc3ccccn3)CC2)C1)C1CC(F)(F)C1` [Example 220, N-{(5R)-8-chloro-1-[trans-4-(pyridin-2-yloxy)cyclohexyl]-5,6-dihydro-4H-[1,2,4]triazolo[4,3-a][1]benzazepin-5-yl}-3,3-difluorocyclobutanecarboxamide], the Ki in assay [1] was determined as 0.4 nM. Besides, the IC50 in assay [2] came out at 2.6 nM.

Take `O=C1Cc2cc(F)ccc2-n2c(nnc2[C@H]2CC[C@H](Oc3ccccn3)CC2)C1` [Example 110, 8-fluoro-1-[trans-4-(pyridin-2-yloxy)cyclohexyl]-4H-[1,2,4]triazolo[4,3-a][1]benzazepin-5(6H)-one]: the inhibition constant Ki in assay [1] was 2.1 nM. In addition, the concentration for half-maximal inhibition (IC50) in assay [2] was found to be 8.3 nM.

Take `CC(C)(O)C(=O)N[C@@H]1Cc2cc(Cl)ccc2-n2c(nnc2[C@H]2CC[C@H](Oc3ccccn3)CC2)C1` [Example 169, N-{(5R)-8-chloro-1-[trans-4-(pyridin-2-yloxy)cyclohexyl]-5,6-dihydro-4H-[1,2,4]triazolo[4,3-a][1]benzazepin-5-yl}-2-hydroxy-2-methylpropanamide]: the inhibition constant Ki in assay [1] stood at 0.9 nM. In addition, in assay [2], the IC50 came out at 2.3 nM.

For `COC1Cc2cc(Cl)ccc2-n2c(nnc2[C@H]2CCN(Cc3cccnc3)C2)C1` (stereo partly drawn) [Example 251, 8-chloro-5-methoxy-1-[(3S)-1-(pyridin-3-ylmethyl)pyrrolidin-3-yl]-5,6-dihydro-4H-[1,2,4]triazolo[4,3-a][1]benzazepine], in assay [1], the inhibitory constant (Ki) stood at 18.5 nM. Besides, the IC50 in assay [2] was 152 nM.

Turning to `CCC[C@]1(OC)CC[C@@H](c2nnc3n2-c2ccc(Cl)cc2CC2(C3)OCCO2)CC1` [Example 243, 8′-chloro-1′-(cis-4-methoxy-4-propylcyclohexyl)-4′H,6′H-spiro[1,3-dioxolane-2,5-[1,2,4]triazolo[4,3-a][1]benzazepine]], in assay [1], the Ki was determined as 0.4 nM. Also, the IC50 in assay [2] was determined as 2.8 nM.

Consider `CO[C@H]1Cc2cc(F)ccc2-n2c(nnc2[C@H]2CC[C@H](Oc3ccccn3)CC2)C1` (single isomer, unassigned) [Example 177], for which the inhibitory constant (Ki) in assay [1] is 0.3 nM. Also, in assay [2], the half-inhibitory concentration (IC50) was found to be 0.9 nM.

For the compound `CCN(C)[C@H]1Cc2cc(Cl)ccc2-n2c(nnc2[C@H]2CC[C@H](Oc3ccccn3)CC2)C1` [Example 160], in assay [1], the inhibition constant (Ki) amounted to 0.4 nM. Besides, the IC50 in assay [2] was determined as 4.9 nM.

As for `COC1Cc2cc(Cl)ccc2-n2c(nnc2C2CCN(C(=O)c3cccnc3)C2)C1` (centres unmarked) [Example 187, [3-(8-chloro-5-methoxy-5,6-dihydro-4H-[1,2,4]triazolo[4,3-a][1]benzazepin-1-yl)pyrrolidin-1-yl](pyridin-3-yl)methanone], the inhibition constant Ki in assay [1] came out at 86 nM. Further, the IC50 in assay [2] is 4750 nM.

`CC(=O)N[C@H]1Cc2cc(Cl)ccc2-n2c(nnc2[C@H]2CC[C@H](Oc3ccccn3)CC2)C1` [Example 68, (5S)—N-{8-chloro-1[trans-4-(pyridin-2-yloxy)cyclohexyl]-5,6-dihydro-4H-[1,2,4]triazolo[4,3-a][1]benzazepin-5-yl}acetamide]: the inhibition constant Ki in assay [1] came to 9.4 nM. Moreover, the IC50 in assay [2] worked out at 33 nM.

With `CN1C[C@]2(CC[C@H](c3nnc4n3-c3ccc(Cl)cc3CC3(C4)OCCO3)CC2)OC1=O` [Example 73, (cis)-8-(8′-chloro-4′H,6′H-spiro[1,3-dioxolane-2,5′-[1,2,4]triazolo[4,3-a][1]benzazepine]-1′-il)-3-methyl-1-oxa-3-azaspiro[4.5]decan-2-one], in assay [1], the Ki came to 1.6 nM. In addition, the IC50 in assay [2] is 3.3 nM.

As to `O=C(OC1Cc2cc(Cl)ccc2-n2c(nnc2[C@H]2CC[C@H](Oc3ccccn3)CC2)C1)C1CC(F)(F)C1` (stereo partly drawn) [Example 213, 8-chloro-1-[trans-4-(pyridin-2-yloxy)cyclohexyl]-5,6-dihydro-4H-[1,2,4]triazolo[4,3-a][1]benzazepin-5-yl 3,3-difluorocyclobutanecarboxylate], the Ki in assay [1] was determined as 0.6 nM. Also, the IC50 in assay [2] is 5.5 nM.

Take `COC1Cc2cc(Cl)ccc2-n2c(nnc2C2CCN(C(=O)OC(C)(C)C)CC2)C1` (centres unmarked) [Example 140, Tert-butyl 4-(8-chloro-5-methoxy-5,6-dihydro-4H-[1,2,4]triazolo[4,3-a][1]benzazepin-1-yl)piperidine-1-carboxylate]: the inhibitory constant (Ki) in assay [1] amounted to 2.4 nM. Besides, in assay [2], the IC50 came out at 57 nM.

Turning to `CC(C)(C)OC(=O)NC1Cc2cc(C(F)(F)F)ccc2-n2c(nnc2[C@H]2CC[C@H](Oc3ccccn3)CC2)C1` (stereo partly drawn) [Example 33, Tert-butyl {1-[trans-4-(pyridin-2-yloxy)cyclohexyl]-8-(trifluoromethyl)-5,6-dihydro-4H-[1,2,4]triazolo[4,3-a][1]benzazepin-5-yl}carbamate], the Ki in assay [1] was 111 nM. Besides, the IC50 in assay [2] is 480 nM.

For `Clc1ccc2c(c1)C[C@@H](N1CCOCC1)Cc1nnc([C@H]3CC[C@H](Oc4ccccn4)CC3)n1-2` [Example 167, (5R)-8-chloro-5-(morpholin-4-yl)-1-[trans-4-(pyridin-2-yloxy)cyclohexyl]-5,6-dihydro-4H-[1,2,4]triazolo[4,3-a][1]benzazepine], the inhibitory constant (Ki) in assay [1] turned out to be 0.4 nM. In assay [2], the IC50 stood at 2.6 nM.

`CC(C)NC1Cc2ccccc2-n2c(nnc2[C@H]2CC[C@H](Oc3ccccn3)CC2)C1` (stereo partly drawn) [Example 150, N-(propan-2-yl)-1-[trans-4-(pyridin-2-yloxy)cyclohexyl]-5,6-dihydro-4H-[1,2,4]triazolo[4,3-a][1]benzazepin-5-amine]: the Ki in assay [1] stood at 5 nM. Moreover, the IC50 in assay [2] is 94 nM.

For the compound `Clc1ccc2c(c1)CC1(Cc3nnc([C@H]4CC[C@H](Oc5ccccn5)CC4)n3-2)OCCCCO1` [Example 106, 8′-chloro-1′-[trans-4-(pyridin-2-yloxy)cyclohexyl]-4°,6′-spiro[1,3-dioxepane-2,5′-[1,2,4]triazolo[4,3-a][1]benzazepine]], the inhibition constant Ki in assay [1] was found to be 0.1 nM. Besides, the half-inhibitory concentration (IC50) in assay [2] was determined as 1.8 nM.

A word on the Ki: it is a measure of affinity in units of concentration, obtained from inhibition or displacement. What is called IC50 is the concentration at which inhibition is half-maximal.
